Assay results from ChEMBL document CHEMBL4665876, “Protection of all cleavable sites of DNA with the multiple CGCG or continuous CGG sites from the restriction enzyme, indicative of simultaneous binding of small ligands” (Bioorg Med Chem, 2020).
Calls of active or inactive are those of the source. The rule behind the calls is not given here.

Key:
Assay type in all cases: nucleic-acid assay
Nucleic Acid [1] = test: Binding affinity to CGCG site of DNA (unknown origin) at 10 uM by PAGE analysis
Nucleic Acid [2] = test: Binding affinity to d(CGG)16 of DNA (unknown origin) assessed as inhibition of Fnu4HI mediated DNA hydrolysis at 10 uM preincubated for 14 hrs followed by Fnu4HI addition and measured after 60 mins by SYBR staining-based PAGE analysis; conditions: Homo sapiens
Nucleic Acid [3] = test: Binding affinity to d(CGG)16 of DNA (unknown origin) assessed as inhibition of Fnu4HI mediated DNA hydrolysis at 25 uM preincubated for 14 hrs followed by Fnu4HI addition and measured after 60 mins by SYBR staining-based PAGE analysis; conditions: Homo sapiens
Nucleic Acid [4] = test: Binding affinity to d(CGG)10 of DNA (unknown origin) assessed as inhibition of Fnu4HI mediated DNA hydrolysis at 25 uM preincubated for 14 hrs followed by Fnu4HI addition and measured after 60 mins by SYBR staining-based PAGE analysis; conditions: Homo sapiens
Nucleic Acid [5] = test: Binding affinity to GC5(2) of DNA (unknown origin) assessed as inhibition of ACCII mediated DNA hydrolysis at 10 to 50 uM preincubated for 14 hrs followed by ACCII addition and measured after 120 mins by SYBR staining-based PAGE analysis; conditions: Homo sapiens; dose microM 10-50, time 14.0 hrs
Nucleic Acid [6] = test: Binding affinity to GC5(5) of DNA (unknown origin) assessed as inhibition of ACCII mediated DNA hydrolysis at 1 uM preincubated for 14 hrs followed by ACCII addition and measured after 120 mins by SYBR staining-based PAGE analysis; conditions: Homo sapiens, time 16.0 hrs
Nucleic Acid [7] = test: Binding affinity to d(CGG) of DNA (unknown origin) assessed as inhibition of Fnu4HI mediated DNA hydrolysis preincubated for 14 hrs followed by Fnu4HI addition and measured after 60 mins by SYBR staining-based PAGE analysis; conditions: Homo sapiens
Nucleic Acid [8] = test: Binding affinity to GC2(5) site of DNA (unknown origin) assessed as inhibition of ACCII mediated DNA hydrolysis at 50 uM preincubated for 14 hrs followed by ACCII addition and measured after 120 mins by SYBR staining-based PAGE analysis; conditions: Homo sapiens
Nucleic Acid [9] = test: Binding affinity to GC1 of DNA (unknown origin) assessed as inhibition of ACCII mediated DNA hydrolysis at 50 uM preincubated for 14 hrs followed by ACCII addition and measured after 120 mins by SYBR staining-based PAGE analysis; conditions: Homo sapiens
Nucleic Acid [10] = test: Binding affinity to GC5(5) of DNA (unknown origin) assessed as inhibition of ACCII mediated DNA hydrolysis at 10 to 50 uM preincubated for 14 hrs followed by ACCII addition and measured after 120 mins by SYBR staining-based PAGE analysis; conditions: Homo sapiens; dose microM 10-50, time 14.0 hrs

| SMILES | Activity (Nucleic Acid [1]) | Activity (Nucleic Acid [6]) | further results |
| --- | --- | --- | --- |
| CCC[C@@H]1C(=O)c2c(cc3cc(O)cc(O)c3c2O)C[C@H]1C | inactive |  |  |
| C[C@H]1CC(=O)c2c(cc3cc(OCC(=O)NO)cc(O)c3c2O)C1 | inactive |  | Activity (Nucleic Acid [2]): Active |
| C[C@H]1CC(=O)c2c(cc3cc(OCCOCC(=O)NO)cc(O)c3c2O)C1 |  |  | Activity (Nucleic Acid [3]): Active; Activity (Nucleic Acid [4]): Active; Activity (Nucleic Acid [5]): Active |
| C[C@H]1CC(=O)c2c(cc3cc(OCCOCCOCC(=O)NO)cc(O)c3c2O)C1 | Active | Active | Activity (Nucleic Acid [7]): inactive |
| C[C@H]1CC(=O)c2c(cc3cc(O)cc(O)c3c2O)C1 | inactive |  |  |
| CCC[C@@H]1C(=O)c2c(cc3cc(OCCOCCOCC(=O)NO)cc(O)c3c2O)C[C@H]1C | Active |  | Activity (Nucleic Acid [8]): Active; Activity (Nucleic Acid [9]): inactive; Activity (Nucleic Acid [10]): Active |
| CCC[C@@H]1C(=O)c2c(cc3cc(OCCOCCOCCOC)cc(O)c3c2O)C[C@H]1C |  | inactive |  |
| O=C1CCCc2cc3cc(O)cc(O)c3c(O)c21 | inactive |  |  |
| CCC[C@@H]1C(=O)c2c(cc3cc(OCCOCCOCC(=O)O)cc(O)c3c2O)C[C@H]1C |  | Active |  |
| O=C(COCCOc1cc(O)c2c(O)c3c(cc2c1)CCCC3=O)NO |  |  | Activity (Nucleic Acid [5]): Active |
